Patent US20230295234A1, “ANTIMICROBIAL PEPTIDOMIMETICS” (SPEXIS AG, priority 2020, published 2023)
Bridge positions count the residues as written; N and C are the ends. Square brackets hold non-standard residues; d marks the D form. Peptide text beside a SMILES is read from it. Pro(4R-NH2) = N[C@H]1CN[C@H](C(=O)O)C1; Gly(N-2-aminoethyl) = NCCNCC(=O)O; Hyp = O=C(O)[C@@H]1C[C@@H](O)CN1; Gly(N(CH2)3NH2) = NCCCNCC(=O)O; Pen = CC(C)(S)[C@H](N)C(=O)O; dDab = NCC[C@@H](N)C(=O)O; Dab = NCC[C@H](N)C(=O)O; Nlys = NCCCCNCC(=O)O

Assays:
[1] = tested on: Escherichia coli ATCC 25922; details: ATCC 25922
Method in brief: (§1)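 First, bacterial colonies are suspended in saline and adjusted to 0.5 McFarland. Next, the suspension is diluted into cation-adjusted Mueller-Hinton II broth (approx. 5×10^5 CFU/mL). Finally, it is added to two-fold serially diluted peptide, with polysorbate 80 at 0.002% final.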

[2] = tested on: Escherichia coli MCR-1 Af 45; details: MCR-1 Af 45
Method in brief: as §1

[3] = tested on: Klebsiella pneumoniae SSI3010; details: SSI3010
Method in brief: as §1

[4] = tested on: human red blood cells (hRBC); assay: Hemolysis of human red blood cells; assay type: cell-based; details: red cells of human, 1 h
Method in brief: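 Percent hemolysis is OD540 of peptide-treated supernatant relative to water-lysed cells. Each peptide was tested at 200 μg/mL against 20% (v/v) washed human erythrocytes. Incubation was 1 h at 37 °C, 300 rpm.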

Escherichia coli ATCC 25922 MIC [1] | Escherichia coli MCR-1 Af 45 MIC [2] | Klebsiella pneumoniae SSI3010 MIC [3] | Structure (SMILES) | Hemolysis at 0.2 g/L [4]
0.25 µg/mL | 0.125 µg/mL | 0.25 µg/mL | CC[C@H](C)[C@H](NC(=O)[C@@H]1C[C@@H](N)CN1C(=O)[C@@H](NC(=O)[C@@H]1C[C@@H](O)CN1C(=O)[C@@H](N)CCCCN)C(C)C)C(=O)N[C@H](C(=O)N[C@@H](Cc1ccc(O)cc1)C(=O)N[C@@H]1C(=O)N[C@@H](CC(N)=O)C(=O)N[C@@H](CCCNC(=N)N)C(=O)N[C@@H](CCN)C(=O)N[C@@H]([C@@H](C)O)C(=O)N[C@H](CCN)C(=O)N[C@@H](CCCCN)C(=O)N[C@H](C(=O)N[C@@H](Cc2ccc(O)cc2)C(=O)N[C@@H](CCCNC(=N)N)C(=O)N[C@@H](Cc2ccc(O)cc2)C(=O)O)CSSC1(C)C)[C@@H](C)O [Example 57, Lys-Hyp-Val-Pro((4R)NH2)-Ile-Thr-Tyr-Pen-Asn-Arg-Dab-Thr-^DDab-Lys-Cys-Tyr-Arg-Tyr] (HELM PEPTIDE1{K.[Hyp].V.[N[C@@H]1C[C@@H](C(=O)[*:2])N([*:1])C1].I.T.Y.[Pen].N.R.[Dab].T.[NCC[C@@H](N[*:1])C(=O)[*:2]].K.C.Y.R.Y}$PEPTIDE1,PEPTIDE1,8:R3-15:R3$$$V2.0) | 0%
0.25 µg/mL | 0.125 µg/mL | 0.25 µg/mL | CC[C@H](C)[C@H](NC(=O)[C@@H]1C[C@@H](N)CN1C(=O)[C@@H](NC(=O)[C@@H]1C[C@@H](O)CN1C(=O)CNCCCN)C(C)C)C(=O)N[C@H](C(=O)N[C@@H](Cc1ccc(O)cc1)C(=O)N[C@@H]1C(=O)N[C@@H](CC(N)=O)C(=O)N[C@@H](CCCNC(=N)N)C(=O)N[C@@H](CCN)C(=O)N[C@@H]([C@@H](C)O)C(=O)N[C@H](CCN)C(=O)N[C@@H](CCCCN)C(=O)N[C@H](C(=O)N[C@@H](Cc2ccc(O)cc2)C(=O)N[C@@H](CCCNC(=N)N)C(=O)N[C@@H](Cc2ccc(O)cc2)C(=O)O)CSSC1(C)C)[C@@H](C)O [Example 58, Norn-Hyp-Val-Pro((4R)NH2)-Ile-Thr-Tyr-Pen-Asn-Arg-Dab-Thr-^DDab-Lys-Cys-Tyr-Arg-Tyr] (H-[Gly(N(CH2)3NH2)][Hyp]V[Pro(4R-NH2)]ITY[Pen]NR[Dab]T[dDab]KCYRY-OH; disulfide 8-15) | 0%
0.25 µg/mL | 0.125 µg/mL | 0.25 µg/mL | CC[C@H](C)[C@H](NC(=O)[C@@H]1C[C@@H](O)CN1C(=O)[C@@H](NC(=O)[C@@H]1C[C@@H](N)CN1C(=O)CNCCCCN)C(C)C)C(=O)N[C@H](C(=O)N[C@@H](Cc1ccc(O)cc1)C(=O)N[C@@H]1C(=O)N[C@@H](CC(N)=O)C(=O)N[C@@H](CCCNC(=N)N)C(=O)N[C@@H](CCN)C(=O)N[C@@H]([C@@H](C)O)C(=O)N[C@H](CCN)C(=O)N[C@@H](CCCCN)C(=O)N[C@H](C(=O)N[C@@H](Cc2ccc(O)cc2)C(=O)N[C@@H](CCCNC(=N)N)C(=O)N[C@@H](Cc2ccc(O)cc2)C(=O)O)CSSC1(C)C)[C@@H](C)O [Example 59, Nlys-Pro((4R)NH2)-Val-Hyp-Ile-Thr-Tyr-Pen-Asn-Arg-Dab-Thr-^DDab-Lys-Cys-Tyr-Arg-Tyr] (H-[Nlys][Pro(4R-NH2)]V[Hyp]ITY[Pen]NR[Dab]T[dDab]KCYRY-OH; disulfide 8-15; N-terminus and C-terminus assumed) | 0%

More lines, now with the values behind:

Structure (SMILES) | Escherichia coli ATCC 25922 MIC [1] | Escherichia coli MCR-1 Af 45 MIC [2] | Klebsiella pneumoniae SSI3010 MIC [3] | Hemolysis at 0.2 g/L [4]
CC[C@H](C)[C@H](NC(=O)[C@@H]1C[C@@H](O)CN1C(=O)[C@@H](NC(=O)CN(CCN)C(=O)[C@@H](N)CCCCN)C(C)C)C(=O)N[C@H](C(=O)N[C@@H](Cc1ccc(O)cc1)C(=O)N[C@@H]1C(=O)N[C@@H](CC(N)=O)C(=O)N[C@@H](CCCNC(=N)N)C(=O)N[C@@H](CCN)C(=O)N[C@@H]([C@@H](C)O)C(=O)N[C@H](CCN)C(=O)N[C@@H](CCCCN)C(=O)N[C@H](C(=O)N[C@@H](CCN)C(=O)N[C@@H](CCCNC(=N)N)C(=O)N[C@@H](Cc2ccc(O)cc2)C(=O)O)CSSC1(C)C)[C@@H](C)O [Example 53, Lys-Ndab-Val-Hyp-Ile-Thr-Tyr-Pen-Asn-Arg-Dab-Thr-^DDab-Lys-Cys-Dab-Arg-Tyr] (HELM PEPTIDE1{K.[NCCN(CC(=O)[*:2])[*:1]].V.[Hyp].I.T.Y.[Pen].N.R.[Dab].T.[NCC[C@@H](N[*:1])C(=O)[*:2]].K.C.[Dab].R.Y}$PEPTIDE1,PEPTIDE1,8:R3-15:R3$$$V2.0) | 0.0625 µg/mL | ≤0.03125 µg/mL | 0.0625 µg/mL | 0%
CC[C@H](C)[C@H](NC(=O)[C@@H]1C[C@@H](O)CN1C(=O)[C@@H](NC(=O)CN(CCN)C(=O)CNCCN)C(C)C)C(=O)N[C@H](C(=O)N[C@@H](Cc1ccc(O)cc1)C(=O)N[C@@H]1C(=O)N[C@@H](CC(N)=O)C(=O)N[C@@H](CCCNC(=N)N)C(=O)N[C@@H](CCN)C(=O)N[C@@H]([C@@H](C)O)C(=O)N[C@H](CCN)C(=O)N[C@@H](CCCCN)C(=O)N[C@H](C(=O)N[C@@H](CCN)C(=O)N[C@@H](CCCNC(=N)N)C(=O)N[C@@H](Cc2ccc(O)cc2)C(=O)O)CSSC1(C)C)[C@@H](C)O [Example 54, Ndab-Ndab-Val-Hyp-Ile-Thr-Tyr-Pen-Asn-Arg-Dab-Thr-^DDab-Lys-Cys-Dab-Arg-Tyr] (H-[Gly(N-2-aminoethyl)][Gly(N-2-aminoethyl)]V[Hyp]ITY[Pen]NR[Dab]T[dDab]KC[Dab]RY-OH; disulfide 8-15) | 0.125 µg/mL | 0.125 µg/mL | 0.25 µg/mL | 0%
CC[C@H](C)[C@H](NC(=O)[C@@H]1C[C@@H](O)CN1C(=O)[C@@H](NC(=O)CN(CCN)C(=O)CNCCCN)C(C)C)C(=O)N[C@H](C(=O)N[C@@H](Cc1ccc(O)cc1)C(=O)N[C@@H]1C(=O)N[C@@H](CC(N)=O)C(=O)N[C@@H](CCCNC(=N)N)C(=O)N[C@@H](CCN)C(=O)N[C@@H]([C@@H](C)O)C(=O)N[C@H](CCN)C(=O)N[C@@H](CCCCN)C(=O)N[C@H](C(=O)N[C@@H](CCN)C(=O)N[C@@H](CCCNC(=N)N)C(=O)N[C@@H](Cc2ccc(O)cc2)C(=O)O)CSSC1(C)C)[C@@H](C)O [Example 55, Norn-Ndab-Val-Hyp-Ile-Thr-Tyr-Pen-Asn-Arg-Dab-Thr-^DDab-Lys-Cys-Dab-Arg-Tyr] (H-[Gly(N(CH2)3NH2)][Gly(N-2-aminoethyl)]V[Hyp]ITY[Pen]NR[Dab]T[dDab]KC[Dab]RY-OH; disulfide 8-15) | ≤0.03125 µg/mL | ≤0.03125 µg/mL | 0.125 µg/mL | 0%
CC[C@H](C)[C@H](NC(=O)[C@@H]1C[C@@H](O)CN1C(=O)[C@@H](NC(=O)CN(CCN)C(=O)CNCCCCN)C(C)C)C(=O)N[C@H](C(=O)N[C@@H](Cc1ccc(O)cc1)C(=O)N[C@@H]1C(=O)N[C@@H](CC(N)=O)C(=O)N[C@@H](CCCNC(=N)N)C(=O)N[C@@H](CCN)C(=O)N[C@@H]([C@@H](C)O)C(=O)N[C@H](CCN)C(=O)N[C@@H](CCCCN)C(=O)N[C@H](C(=O)N[C@@H](CCN)C(=O)N[C@@H](CCCNC(=N)N)C(=O)N[C@@H](Cc2ccc(O)cc2)C(=O)O)CSSC1(C)C)[C@@H](C)O [Example 56, Nlys-Ndab-Val-Hyp-Ile-Thr-Tyr-Pen-Asn-Arg-Dab-Thr-^DDab-Lys-Cys-Dab-Arg-Tyr] (H-[Nlys][Gly(N-2-aminoethyl)]V[Hyp]ITY[Pen]NR[Dab]T[dDab]KC[Dab]RY-OH; disulfide 8-15) | 0.0625 µg/mL | 0.0625 µg/mL | 0.125 µg/mL | 0%
